The results in this text go back to patent US12351580B2, “NLRP3 modulators” (Innate Tumor Immunity, Inc., priority 2017, dated 2025).

The target in one experiment is T1, TLR7 (Homo sapiens, UniProt Q9NYK1).
T1 construct: host or cells: HEK-Blue cells (human HEK) co-expressing TLR7 and an NF-kB/AP1-inducible SEAP reporter
T1 sequence (Q9NYK1 27-1049): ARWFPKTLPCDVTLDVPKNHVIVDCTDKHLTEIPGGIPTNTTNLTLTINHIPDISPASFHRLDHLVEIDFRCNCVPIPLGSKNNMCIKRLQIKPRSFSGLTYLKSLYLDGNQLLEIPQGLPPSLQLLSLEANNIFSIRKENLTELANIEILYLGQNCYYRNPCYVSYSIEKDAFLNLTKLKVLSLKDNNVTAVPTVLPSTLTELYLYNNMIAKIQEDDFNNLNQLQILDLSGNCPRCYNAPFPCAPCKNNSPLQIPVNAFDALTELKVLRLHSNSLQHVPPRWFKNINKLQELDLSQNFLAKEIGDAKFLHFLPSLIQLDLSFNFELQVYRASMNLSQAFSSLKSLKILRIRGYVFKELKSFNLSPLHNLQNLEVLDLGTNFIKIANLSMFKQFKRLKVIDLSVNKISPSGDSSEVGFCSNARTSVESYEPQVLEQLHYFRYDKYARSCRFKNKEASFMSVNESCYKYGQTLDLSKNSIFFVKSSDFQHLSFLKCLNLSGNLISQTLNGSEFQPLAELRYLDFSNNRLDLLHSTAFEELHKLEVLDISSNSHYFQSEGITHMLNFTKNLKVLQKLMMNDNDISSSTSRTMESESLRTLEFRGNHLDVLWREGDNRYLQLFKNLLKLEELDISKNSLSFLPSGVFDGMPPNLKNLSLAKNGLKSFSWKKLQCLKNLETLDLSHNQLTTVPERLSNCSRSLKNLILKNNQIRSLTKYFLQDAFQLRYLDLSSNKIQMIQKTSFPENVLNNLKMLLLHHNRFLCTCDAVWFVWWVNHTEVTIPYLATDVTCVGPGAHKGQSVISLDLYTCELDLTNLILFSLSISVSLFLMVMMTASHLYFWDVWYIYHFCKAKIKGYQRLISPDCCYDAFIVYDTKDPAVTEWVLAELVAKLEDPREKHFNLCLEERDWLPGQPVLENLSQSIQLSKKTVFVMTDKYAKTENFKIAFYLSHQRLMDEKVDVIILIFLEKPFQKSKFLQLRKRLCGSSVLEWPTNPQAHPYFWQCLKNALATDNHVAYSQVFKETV
The experiment in a line: In vitro human TLR7 binding reporter assay (HEK-Blue, NF-kB/AP1-inducible SEAP). The format is cell-based. The procedure, abridged: (§1)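 Reporter cells are plated at 15,000 per well and rested 24 h. Next day, test compounds or DMSO are dispensed, followed by 18 h incubation at 37 °C, 5% CO2.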
(In general: A reporter such as luciferase makes a cellular process visible.)

For the next experiment, the target named is T2, TLR8 (Homo sapiens, UniProt Q9NR97).
T2 construct: host or cells: HEK-Blue cells (human HEK) co-expressing TLR8 and an NF-kB/AP1-inducible SEAP reporter
T2 sequence (Q9NR97 27-1041): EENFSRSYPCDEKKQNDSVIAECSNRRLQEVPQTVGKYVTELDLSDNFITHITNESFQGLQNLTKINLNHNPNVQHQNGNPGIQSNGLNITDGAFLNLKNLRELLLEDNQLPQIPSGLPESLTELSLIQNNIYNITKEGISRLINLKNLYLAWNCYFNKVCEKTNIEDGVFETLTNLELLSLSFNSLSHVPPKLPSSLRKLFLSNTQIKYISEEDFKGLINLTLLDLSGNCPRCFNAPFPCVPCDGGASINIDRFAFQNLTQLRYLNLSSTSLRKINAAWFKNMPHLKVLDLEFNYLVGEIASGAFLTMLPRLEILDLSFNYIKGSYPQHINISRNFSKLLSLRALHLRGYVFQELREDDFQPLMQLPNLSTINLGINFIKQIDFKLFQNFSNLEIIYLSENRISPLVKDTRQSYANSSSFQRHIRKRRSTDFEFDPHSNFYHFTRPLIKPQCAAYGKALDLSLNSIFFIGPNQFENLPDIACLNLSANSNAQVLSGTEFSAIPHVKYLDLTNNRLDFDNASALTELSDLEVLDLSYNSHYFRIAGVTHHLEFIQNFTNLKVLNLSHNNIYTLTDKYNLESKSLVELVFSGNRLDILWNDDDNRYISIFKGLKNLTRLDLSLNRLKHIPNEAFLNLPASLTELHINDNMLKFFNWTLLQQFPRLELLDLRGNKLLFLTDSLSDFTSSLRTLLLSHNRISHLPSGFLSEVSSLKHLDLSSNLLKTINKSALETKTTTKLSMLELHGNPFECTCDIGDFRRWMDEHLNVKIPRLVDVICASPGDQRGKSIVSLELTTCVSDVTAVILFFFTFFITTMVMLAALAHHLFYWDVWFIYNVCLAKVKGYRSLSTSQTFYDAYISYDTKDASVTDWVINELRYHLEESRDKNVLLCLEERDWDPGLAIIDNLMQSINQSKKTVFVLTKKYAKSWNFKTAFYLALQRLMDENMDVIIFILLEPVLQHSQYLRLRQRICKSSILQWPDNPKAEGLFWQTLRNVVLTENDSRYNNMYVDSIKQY
Kind of experiment: In vitro human TLR8 binding reporter assay (HEK-Blue, NF-kB/AP1-inducible SEAP). In kind it is cell-based. The procedure, abridged:
as §1

Regarding `Nc1nc2cc(-n3cccn3)ccc2c2[nH]c(CN3C[C@@H](c4ccccc4)CC3=O)nc12` [Compound 357], the EC50 on TLR7 (activity range symbols) and at TLR8 (activity range symbols) was more than 100 µM in each case.
As for `Nc1nc2cc(-n3cccn3)ccc2c2[nH]c(CN3C[C@H](c4ccccc4)CC3=O)nc12` [Compound 358], the EC50 on TLR7 (activity range symbols) and on TLR8 (activity range symbols) was more than 100 µM throughout.
`Nc1nc2cc(-c3cc[nH]n3)ccc2c2[nH]c(CN3C(=O)OCC3c3ccccc3)nc12` (centres unmarked) [Compound 363]: the EC50 on TLR7 (activity range symbols) and at TLR8 (activity range symbols) was more than 100 µM in each case.
Consider `Nc1nc2cc(-c3cc[nH]n3)ccc2c2[nH]c(CN3CCOC3=O)nc12` [Compound 365], for which the concentration for a half-maximal effect (EC50) at TLR7 (activity range symbols) and on TLR8 (activity range symbols) was more than 100 µM each time.
As for `CN1CCN(Cc2nc3c(N)nc4cc(-c5cc[nH]n5)ccc4c3[nH]2)C1=O` [Compound 368], the EC50 at TLR7 (activity range symbols) and on TLR8 (activity range symbols) was more than 100 µM throughout.
`CN(Cc1nc2c(N)nc3cc(-c4cc[nH]n4)ccc3c2[nH]1)C(=O)CO` [Compound 370]: the half-maximal effective concentration (EC50) on TLR7 (activity range symbols) and on TLR8 (activity range symbols) was more than 100 µM in each case.
Regarding `CN(Cc1nc2c(N)nc3cc(-c4cc[nH]n4)ccc3c2[nH]1)C(=O)CN` [Compound 372], the EC50 at TLR7 (activity range symbols) and on TLR8 (activity range symbols) was more than 100 µM in each case.
Take `CN(C)C(=O)N(C)Cc1nc2c(N)nc3cc(-c4cc[nH]n4)ccc3c2[nH]1` [Compound 375]: the EC50 at TLR7 (activity range symbols) and at TLR8 (activity range symbols) was more than 100 µM each time.
`CN(Cc1nc2c(N)nc3cc(-c4cc[nH]n4)ccc3c2[nH]1)C(=O)c1ccccc1` [Compound 376]: the EC50 on TLR7 (activity range symbols) and at TLR8 (activity range symbols) was more than 100 µM throughout.
Consider `CN(Cc1nc2c(N)nc3cc(-c4cc[nH]n4)ccc3c2[nH]1)C(=O)c1nccs1` [Compound 377], for which the EC50 at TLR7 (activity range symbols) and at TLR8 (activity range symbols) was more than 100 µM in each case.
Take `CCN(C=O)Cc1nc2c(N)nc3cc(-c4cc[nH]n4)ccc3c2[nH]1` [Compound 379]: the EC50 at TLR7 (activity range symbols) and at TLR8 (activity range symbols) was more than 100 µM each time.
For `CCN(Cc1nc2c(N)nc3cc(-c4cc[nH]n4)ccc3c2[nH]1)C(=O)CN(C)C` [Compound 383], the concentration for a half-maximal effect (EC50) at TLR7 (activity range symbols) and at TLR8 (activity range symbols) was more than 100 µM each time.
Regarding `CCN(Cc1nc2c(N)nc3cc(-c4ccn(C)n4)ccc3c2[nH]1)C(=O)OC(C)(C)C` [Compound 393], the EC50 on TLR7 (activity range symbols) and on TLR8 (activity range symbols) was more than 100 µM throughout.
Take `CCN(Cc1nc2c(N)nc3cc(-c4ccsc4)ccc3c2[nH]1)C(=O)OC(C)(C)C` [Compound 397]: the concentration giving a half-maximal response (EC50) at TLR7 (activity range symbols) and on TLR8 (activity range symbols) was more than 100 µM each time.
Regarding `CCNCc1nc2c(N)nc3cc(-n4cccn4)ccc3c2[nH]1` [Compound 398], the EC50 on TLR7 (activity range symbols) and at TLR8 (activity range symbols) was more than 100 µM throughout.
In the case of `CCNCc1nc2c(N)nc3cc(-c4cccs4)ccc3c2[nH]1` [Compound 399], the EC50 at TLR7 (activity range symbols) and on TLR8 (activity range symbols) was more than 100 µM in each case.
On to `CCNCc1nc2c(N)nc3cc(-c4ccsc4)ccc3c2[nH]1` [Compound 400], for which the 50% effective concentration (EC50) at TLR7 (activity range symbols) and at TLR8 (activity range symbols) was more than 100 µM in each case.
In the case of `CNCc1nc2c(N)nc3cc(-c4cc[nH]n4)ccc3c2[nH]1` [Compound 401], the half-maximal effective concentration (EC50) on TLR7 (activity range symbols) and at TLR8 (activity range symbols) was more than 100 µM each time.
On to `CNCc1nc2c(N)nc3cc(-n4cccn4)ccc3c2[nH]1` [Compound 402], for which the EC50 on TLR7 (activity range symbols) and on TLR8 (activity range symbols) was more than 100 µM in each case.
In the case of `COc1ccc(Cn2c(CN3CCN(C)C3=O)nc3c(N)nc4cc(-c5cc[nH]n5)ccc4c32)cc1` [Compound 403], the EC50 on TLR7 (activity range symbols) and at TLR8 (activity range symbols) was more than 100 µM each time.
For `COc1ccc(Cn2c(CN3C(=O)OCC3COCc3ccccc3)nc3c(N)nc4cc(-c5cc[nH]n5)ccc4c32)cc1` (centres unmarked) [Compound 404], the 50% effective concentration (EC50) on TLR7 (activity range symbols) and on TLR8 (activity range symbols) was more than 100 µM throughout.
Regarding `COC(=O)N(C)Cc1nc2c(N)nc3cc(-c4cc[nH]n4)ccc3c2[nH]1` [Compound 405], the EC50 at TLR7 (activity range symbols) and at TLR8 (activity range symbols) was more than 100 µM throughout.
Regarding `CCN(Cc1nc2c(N)nc3cc(-c4cc[nH]n4)ccc3c2[nH]1)C(=O)OC` [Compound 406], the EC50 on TLR7 (activity range symbols) and on TLR8 (activity range symbols) was more than 100 µM throughout.
As for `Nc1nc2cc(-c3cc[nH]n3)ccc2c2[nH]c(CN3C[C@@H](c4ccccc4)CC3=O)nc12` [Compound 407], the EC50 on TLR7 (activity range symbols) and on TLR8 (activity range symbols) was more than 100 µM throughout.
For `Nc1nc2cc(-c3cc[nH]n3)ccc2c2[nH]c(CN3C[C@H](c4ccccc4)CC3=O)nc12` [Compound 408], the EC50 at TLR7 (activity range symbols) and at TLR8 (activity range symbols) was more than 100 µM each time.
On to `COc1ccc(Cn2c(CN3C(=O)OCC3c3ccccc3)nc3c(N)nc4cc(-c5cc[nH]n5)ccc4c32)cc1` (centres unmarked) [Compound 409], for which the concentration giving a half-maximal response (EC50) at TLR7 (activity range symbols) and at TLR8 (activity range symbols) was more than 100 µM each time.
Take `COc1ccc(Cn2c(Cn3cnccc3=O)nc3c(N)nc4cc(-c5cc[nH]n5)ccc4c32)cc1` [Compound 414]: the EC50 at TLR7 (activity range symbols) and on TLR8 (activity range symbols) was more than 100 µM throughout.
As to `CCN(Cc1nc2c(N)nc3cc(-c4cc[nH]n4)ccc3c2[nH]1)C(=O)C1COC1` [Compound 417], the EC50 on TLR7 (activity range symbols) and on TLR8 (activity range symbols) was more than 100 µM throughout.
In the case of `CCN(Cc1nc2c(N)nc3cc(-c4ccsc4)ccc3c2[nH]1)C(C)=O` [Compound 419, N-((4-Amino-7-(thiophen-3-yl)-1H-imidazo[4,5-c]quinolin-2-yl)methyl)-N-ethylacetamide], the EC50 at TLR7 (activity range symbols) and at TLR8 (activity range symbols) was more than 100 µM each time.
On to `CCN(Cc1nc2c(N)nc3cc(-c4cc[nH]n4)ccc3c2n1C)C(=O)OC(C)(C)C` [Compound 420], for which the EC50 on TLR7 (activity range symbols) and at TLR8 (activity range symbols) was more than 100 µM throughout.
Regarding `CCN(Cc1nc2c(N)nc3cc(-c4ccc(C)cc4)ccc3c2[nH]1)C(C)=O` [Compound 422], the EC50 at TLR7 (numeric bounds) and at TLR8 (numeric bounds) was more than 10 µM each time.
On to `Nc1nc2cc(-n3cccn3)ccc2c2[nH]c(CN3CCCCC3=O)nc12` [Compound 423], for which the EC50 at TLR7 (activity range symbols) and on TLR8 (activity range symbols) was more than 100 µM each time.
As for `CCN(Cc1nc2c(N)nc3cc(-c4cncc(F)c4)ccc3c2[nH]1)C(C)=O` [Compound 427], the EC50 on TLR7 (activity range symbols) and at TLR8 (activity range symbols) was more than 100 µM throughout.
`CCN(Cc1nc2c(N)nc3cc(Br)ccc3c2n1CC(C)C)C(C)=O` [Compound 430]: the EC50 is more than 100 µM at TLR7 (activity range symbols) and more than 10 µM at TLR8 (numeric bounds).
Taken in the same sequence, the figures for `CCN(Cc1nc2c(N)nc3cc(Br)ccc3c2n1CCCOC)C(C)=O` [Compound 431] were more than 100 µM and more than 10 µM.
Regarding `N#Cc1ccc(-c2ccc3c(c2)nc(N)c2nc(CN4CCCC4=O)[nH]c23)cc1` [Compound 434], the EC50 on TLR7 (numeric bounds) and at TLR8 (numeric bounds) was more than 30 µM in each case.
As to `CCOC(=O)N(CC)Cc1nc2c(N)nc3cc(-c4cc[nH]n4)ccc3c2[nH]1` [Compound 436, Ethyl N-{[4-amino-7-(1H-pyrazol-3-yl)-1H-imidazo[4,5-c]quinolin-2-yl]methyl}-N-ethylcarbamate], the EC50 on TLR7 (numeric bounds) and at TLR8 (numeric bounds) was more than 50 µM each time.

As usually defined, the EC50 is the concentration needed to bring the measured effect to its halfway point. Read a low EC50 as higher potency in that assay.
